Assays:
[1] = test system: Caco-2 colon cancer cells; assay: Caco-2 scratch wound assay (proliferation and migration); assay type: cell-based; conditions: Caco-2 cells incubated with inhibitor, FIG. 9
Method: FIG. 9 is a graph showing that MK2 inhibition decreases colon cancer carcinoma cell proliferation. Incubating Caco-2 colon cancer cells with the MK2 inhibitor (MK2a) decreased proliferation and migration in a scratch wound assay.

[2] = test system: neoplasms in AOM/DSS exposed mice; assay: AOM/DSS mouse model of colon cancer, neoplasm number after MK2 inhibitor treatment; assay type: in vivo; conditions: treated three times a week for three weeks; FIG. 10
Method: FIG. 10 is a graph showing that AOM/DSS exposed mice treated with MK2 inhibitors regresses neoplasms.
Mice: C57Bl/6 mice from Harlan Laboratories and the MK2^−/−tm1Mgl (8) mouse strain were bred under pathogen free conditions. Animal procedures were approved by the UNM IACUC. Azoxymethane (AOM), (Sigma Aldrich, St. Louis, Mo.) was injected […] into 6-8 week old female mice at 12.5 mg/kg. Dextran Sodium Sulfate (DSS), (MP Biomedicals, MW 36,000-50,000) was added to drinking water at 2.5% at days 5 and 26 and at 2.0% at day 47, 2.0% for 5 days sacrificed at day 80. Control mice received PBS IP and no DSS in water. Mouse Colon Supernatants: 8 mg (±0.5 mg) of cleaned colon tissues were incubated in complete RPMI with antibiotics for 12 hours. Supernatants were analyzed for cytokines by Luminex bead array (Millipore, Billerica, Mass.) according to manufacturer's instructions.

SMILES: O=C(CCCc1ccc(-c2ccccc2F)cc1)Nc1ccc(O)cc1 [MK2a inhibitor]
- migration in a scratch wound assay [1]: decreased
- colon cancer carcinoma cell proliferation ([1]; scratch wound assay): decreased
- neoplasms (number) in AOM/DSS exposed mice [2]: significantly less neoplasms

— patent US10512651B2, “Inhibition of MK2 in the treatment of cancer” (STC.UNM, priority 2014, dated 2019)
